Like-named read-outs stand apart in the source and are kept apart here.
Key:
[1] = Method validation: short-term stability in plasma
[2] = Randomized crossover quantitative trial: plasma pharmacokinetics of nine ingredients after rikkunshito 2.5, 5.0 or 7.5 g; conditions: for Tmax / AUC(0-t) / Cmax / half-life: human, plasma; for AUC(0-t): AUC0-last; for Cmax: C max
Excerpt: The first trial was a nonrandomized, open-label, one-period design. The second trial was a randomized, open-label, three-arm, three-period design (Fig 1). With respect to inclusion criteria, the studies included healthy Japanese adults between 20 and 45 years of age with a body mass index between 18 and 25 who were willing and able to comply with the study requirements. Exclusion criteria for this study included a history of significant liver, heart, or vessel disease and consumption of supplements that contained any rikkunshito ingredients or any drug within 3 days to 1 week before the first dose. Other standard exclusion criteria included relevant allergies, pregnant or nursing females, and any alcohol or nicotine use. The sample size was set as more than 15 based on the Ministry of Health, Labour and Welfare’s guidelines. Subjects allocated to a screening test were randomized to one of three groups by the central allocation system (allocation ratio 1:1:1). A random sequence was generated using a computer. The safety endpoint was evaluated in all volunteers. This endpoint was defined on the basis of a physician’s judgement after examination or observation that a serious adverse event had occurred. Adverse events included death, a life-threatening event, an event requiring hospitalization for treatment or an extended stay in hospital, an event resulting in permanent or temporary disability or dysfunction, an event resulting in a congenital abnormality, or any other serious medical phenomenon. With respect to side effects, no specific conditions were defined, and all adverse events for which no causal relationship with the drug could be excluded were deemed to be side effects. In each stage during the 48-h period following rikkunshito administration, the physician monitored the patient for subjective symptoms, objective findings, swelling, body temperature (axillary), blood pressure (sitting), and pulse (sitting). The physician also conducted a hematological examination to measure the patient’s red blood cell, leucocyte and platelet counts, hemoglobin level, and hematocrit value. A biochemical examination was conducted to determine total protein, blood urea nitrogen, creatinine, uric acid, aspartate aminotransferase, alanine aminotransferase, total bilirubin, alkaline phosphatase, γ-glutamyltranspeptidase albumin, prothrombin time, total cholesterol, C-reactive protein, and potassium to identify any abnormalities in comparison with the subject’s condition prior to administration. All participants fasted for 12 h before administration and 4 h after administration of the study drug.
In the second quantitative trial, 12-mL blood samples were collected at 0 (preadministration), 0.25, 0.5, 1, 2, 3, 4, 6, 8, 10, 12, 24, and 48 h after a single oral administration of rikkunshito (Lot H05142). A total of 3 daily doses were used in this trial, i.e., the clinical dose per administration (2.5 g) as the lowest dose, the clinical daily dose (7.5 g) as the highest dose, and an intermediate dose (5.0 g), to broadly discuss the pharmacokinetic characteristics of the ingredients measured. The trial participants were hospitalized overnight on the day they ingested rikkunshito, and returned home the following day after blood samples were collected at the 24-h time point. The participants returned to the hospital to provide blood samples at 48 h. The blood was immediately centrifuged at 1700 ×g for 15 min to obtain plasma. Plasma fractions were stored at −20°C or lower until analysis.
Plasma, urine, and rikkunshito formulation samples were analyzed for rikkunshito ingredients concentrations using a liquid chromatography–mass spectrometry with tandem mass spectrometer assay (LC–MS/MS; API5000, Triple Quad 6500, or QTRAP5500; AB Sciex, Tokyo, Japan) or gas chromatography–mass spectrometry. Further information of analytical methods can be found at S1 Appendix.

[3] = Method validation: stability in blood
[4] = Dose proportionality (linearity) test by power model for C max and AUC0-last; conditions: rikkunshito 2.5, 5.0 or 7.5 g
Experimental: The dose proportionality was analyzed via a power model [21, 22]. […] Evaluation of linearity of the dosage-exposure relationship was conducted with Phoenix WinNonlin and SAS 9.2 (SAS Institute, Inc., Cary, NC).

[5] = Method validation: stability in standard, stock and working solution
[6] = Method validation: post-preparative stability (autosampler)
[7] = Method validation: long-term stability in plasma
[8] = protocol rationale for final sampling time; cited from earlier work
[9] = Stability of ingredients in gastric pH solution (pH 1.2, 37°C); assay type: physicochemical; conditions: pH 1.2
Experimental: Rikkunshito gradually dissolved in acidic solution (pH 1.2) at 37°C, and the concentration of atractylodin after adding 0.25, 0.5, 1, and 2 h was measured by gas chromatography–mass spectrometry.

[10] = Method validation: freeze-thaw stability in plasma; conditions: deep freezer (−30°C to −10°C), after 3 cycles of freeze-thaw
[11] = po, 2.5 g, rikkunshito 2.5 g single oral, n = 21, geometric mean (95% CI)
[12] = po, 2.5 g, Median t max (range), rikkunshito 2.5 g single oral, n = 21, median (minimum–maximum)
[13] = po, 5 g, rikkunshito 5.0 g single oral, n = 19, geometric mean (95% CI)
[14] = po, 5 g, Median t max (range), rikkunshito 5.0 g single oral, n = 19, median (minimum–maximum)
[15] = po, 5 g, t 1/2, rikkunshito 5.0 g single oral, n = 19, geometric mean (95% CI)
[16] = po, 7.5 g, rikkunshito 7.5 g single oral, n = 19, geometric mean (95% CI)
[17] = rikkunshito 7.5 g single oral, n = 19, geometric mean (95% CI)
[18] = rikkunshito 7.5 g single oral, n = 19, median (minimum–maximum)

Compound: CC1(C)[C@@H](O)CC[C@]2(C)[C@H]3C(=O)C=C4[C@@H]5C[C@@](C)(C(=O)O)CC[C@]5(C)CC[C@@]4(C)[C@]3(C)CC[C@@H]12 [18β-Glycyrrhetinic acid]
- Short-term stability, RR ([1]; 1600 pg/mL, at room temperature for 4 h): 89.0%
- Short-term stability, RR ([1]; 1600 pg/mL, at room temperature for 25 h): 90.2%
- Short-term stability, RR ([1]; 64000 pg/mL, at room temperature for 4 h): 98.9%
- Short-term stability, RR ([1]; 64000 pg/mL, at room temperature for 25 h): 105.0%
- Tmax ([2]; oral, t max, after rikkunshito administration, dose not given): 8 h
- AUC(0-t) [2, 11]: 292 ng·h/mL
- Cmax [2, 11]: 23 ng/mL
- Tmax [2, 12]: 8 h
- AUC(0-t) [2, 13]: 638 ng·h/mL
- Cmax [2, 13]: 44.2 ng/mL
- Tmax [2, 14]: 8 h
- half-life [2, 15]: 8.94 h
- AUC(0-t) [2, 16]: 832 ng·h/mL
- Cmax [2, 16]: 55.6 ng/mL
- half-life ([2]; po, 7.5 g, t 1/2, rikkunshito 7.5 g single oral, n = 19, geometric mean (95% CI)): > 10 h
- t 1/2 [2, 17]: 11.7 (8.90–15.3) h
- Median t max (range) [2, 18]: 8.00 (5.98–23.7) h
- Median t max (range) ([2]; rikkunshito 7.5 g single oral, n = 19, median (minimum–maximum), listed as 18β-glycyrrhetinic acid): exceeding 3 h
- Stability in blood, RR ([3]; 1600 pg/mL, at room temperature for 2 h): 104.2%
- Stability in blood, RR ([3]; 1600 pg/mL, on ice for 2 h): 108.8%
- Stability in blood, RR ([3]; 64000 pg/mL, at room temperature for 2 h): 98.2%
- Stability in blood, RR ([3]; 64000 pg/mL, on ice for 2 h): 99.1%
- Dose proportionality test using power model, β ([4]; AUC0-last): 0.979
- Dose proportionality test using power model, β ([4]; Cmax): 0.819
- Working solution stability, RR ([5]; 8 ng/mL, refrigerator (1°C to 8°C) for 53 days): 108.4%
- Working solution stability, RR ([5]; 800 ng/mL, refrigerator (1°C to 8°C) for 53 days): 100.7%
- Stock solution stability, RR ([5]; 0.8 mg/mL, refrigerator (1°C to 8°C) for 54 days): 54 days: 100.0%
- Stock solution stability, RR ([5]; 0.8 mg/mL, refrigerator (1°C to 8°C) for 129 days): 129 days: 100.0%
- Post-preparative stability, RR ([6]; 1600 pg/mL, autosampler set at 4°C for 24 h): 106.0%
- Post-preparative stability, RR ([6]; 1600 pg/mL, autosampler set at 4°C for 48 h): 110.8%
- Post-preparative stability, RR ([6]; 64000 pg/mL, autosampler set at 4°C for 24 h): 104.9%
- Post-preparative stability, RR ([6]; 64000 pg/mL, autosampler set at 4°C for 48 h): 111.4%
- Long-term stability, RR ([7]; 1600 pg/mL, freezer (−30°C to −10°C) for 13 days): 102.6%
- Long-term stability, RR ([7]; 1600 pg/mL, freezer (−30°C to −10°C) for 39 days): 108.3%
- Long-term stability, RR ([7]; 1600 pg/mL, freezer (−30°C to −10°C) for 228 days): 113.5%
- Long-term stability, RR ([7]; 64000 pg/mL, freezer (−30°C to −10°C) for 13 days): 113.1%
- Long-term stability, RR ([7]; 64000 pg/mL, freezer (−30°C to −10°C) for 39 days): 104.4%
- Long-term stability, RR ([7]; 64000 pg/mL, freezer (−30°C to −10°C) for 228 days): 109.2%
- half-life [8]: approximately 10 h

Compound: O=C(/C=C/c1ccc(O)cc1)c1ccc(O)cc1O [Isoliquiritigenin]
- Stability in gastric pH solution, Quantitative value ([9]; 0.5 h): 15.2 ng/mL
- Stability in gastric pH solution, Quantitative value ([9]; 1 h): 15.5 ng/mL
- Stability in gastric pH solution, Quantitative value ([9]; 2 h): 15.2 ng/mL
- Short-term stability, RR ([1]; 4 pg/mL, at room temperature for 4 h): 97.0%
- Short-term stability, RR ([1]; 4 pg/mL, at room temperature for 24 h): 96.5%
- Short-term stability, RR ([1]; 160 pg/mL, at room temperature for 4 h): 85.2%
- Short-term stability, RR ([1]; 160 pg/mL, at room temperature for 24 h): 101.2%
- AUC(0-t) [2, 11]: 0.0307 ng·h/mL
- Cmax [2, 11]: 0.0205 ng/mL
- Tmax [2, 12]: 0.25 h
- AUC(0-t) [2, 13]: 0.0766 ng·h/mL
- Cmax [2, 13]: 0.0321 ng/mL
- Tmax [2, 14]: 0.25 h
- half-life [2, 15]: 4.12 h
- AUC(0-t) [2, 16]: 0.122 ng·h/mL
- Cmax [2, 16]: ~0.0428 ng/mL
- C max [2, 17]: 42.8 (30.4–60.3) pg/mL
- t 1/2 [2, 17]: 3.26 (1.69–6.31) h
- t 1/2 ([2]; rikkunshito 7.5 g single oral, n = 19, geometric mean (95% CI), listed as isoliquiritigenin): < 10 h
- Median t max (range) [2, 18]: 0.250 (0.250–4.00) h
- Median t max (range) ([2]; rikkunshito 7.5 g single oral, n = 19, median (minimum–maximum), listed as isoliquiritigenin): ≤ 1 h
- Stability in blood, RR ([3]; 4 pg/mL, at room temperature for 2 h): 81.0%
- Stability in blood, RR ([3]; 4 pg/mL, on ice for 2 h): 103.0%
- Stability in blood, RR ([3]; 160 pg/mL, at room temperature for 2 h): 46.8%
- Stability in blood, RR ([3]; 160 pg/mL, on ice for 2 h): 90.2%
- Dose proportionality test using power model, β ([4]; AUC0-last): 1.27
- Dose proportionality test using power model, β ([4]; Cmax): 0.692
- Working solution stability, RR ([5]; 0.02 ng/mL, refrigerator (1°C to 8°C) for 53 days): 89.9%
- Working solution stability, RR ([5]; 0.02 ng/mL, refrigerator (1°C to 8°C) for 128 days): 108.2%
- Working solution stability, RR ([5]; 2 ng/mL, refrigerator (1°C to 8°C) for 53 days): 92.7%
- Working solution stability, RR ([5]; 2 ng/mL, refrigerator (1°C to 8°C) for 128 days): 102.2%
- Stock solution stability, RR ([5]; 0.1 mg/mL, refrigerator (1°C to 8°C) for 54 days): 54 days: 96.9%
- Stock solution stability, RR ([5]; 0.1 mg/mL, refrigerator (1°C to 8°C) for 129 days): 129 days: 96.9%
- Post-preparative stability, RR ([6]; 4 pg/mL, autosampler set at 4°C for 25 h): 110.0%
- Post-preparative stability, RR ([6]; 4 pg/mL, autosampler set at 4°C for 48 h): 88.0%
- Post-preparative stability, RR ([6]; 160 pg/mL, autosampler set at 4°C for 25 h): 115.2%
- Post-preparative stability, RR ([6]; 160 pg/mL, autosampler set at 4°C for 48 h): 93.8%
- Freeze-thaw stability, RR ([10]; 4 pg/mL): 95.3%
- Freeze-thaw stability, RR ([10]; 160 pg/mL): 88.3%
- Long-term stability, RR ([7]; 4 pg/mL, freezer (−30°C to −10°C) for 22 days): 99.0%
- Long-term stability, RR ([7]; 4 pg/mL, freezer (−30°C to −10°C) for 31 days): 105.0%
- Long-term stability, RR ([7]; 4 pg/mL, freezer (−30°C to −10°C) for 220 days): 102.8%
- Long-term stability, RR ([7]; 160 pg/mL, freezer (−30°C to −10°C) for 22 days): 95.0%
- Long-term stability, RR ([7]; 160 pg/mL, freezer (−30°C to −10°C) for 31 days): 87.7%
- Long-term stability, RR ([7]; 160 pg/mL, freezer (−30°C to −10°C) for 220 days): 85.5%

From article PMC4506051, “Pharmacokinetic Profiles of Active Ingredients and Its Metabolites Derived from Rikkunshito, a Ghrelin Enhancer, in Healthy Japanese Volunteers: A Cross-Over, Randomized Study” (PLoS ONE, 2015)
